Test results as given in ChEMBL document CHEMBL1141171, “Selective estrogen receptor modulators with conformationally restricted side chains. Synthesis and structure-activity relationship of ERalpha-selective tetrahydroisoquinoline ligands” (J Med Chem, 2005).

Columns and labels:
[1] = Total clearance of compound in rat after administration of 1 mg/kg (iv) and 5 mg/kg (po); type: ADME, organism-based; settings: in vivo
[2] = Maximum plasma concentration of compound in rat after peroral administration of 5 mg/kg; type: ADME, organism-based; design: dose 5 mg/kg, route oral; settings: po
[3] = Steady state volume of distribution in rat after administration of 1 mg/kg (iv) and 5 mg/kg (po); type: ADME, organism-based; settings: in vivo, read-out: Vss
in vivo = settings: rat, po, 5 mg/kg

clearance [1] [mL/min/kg] | Cmax [2] [nM] | Vd [3] [L/kg] | bioavailability (in vivo) [%] | Structure (SMILES)
28.4 | 29.7 | 9.2 | 49 | Oc1ccc2c(c1)CCN(c1ccccc1)C2c1ccc(N2CCN3CCCCC3C2)cc1 (stereo unspecified)
17.9 | 57.2 | 5 | 44 | CC(C)N1CCN(c2ccc(C3c4ccc(O)cc4CCN3c3cccc(O)c3)cc2)CC1 (stereo unspecified)

Second part, the compound before the results:

Structure (SMILES) | clearance [1] [mL/min/kg] | Cmax [2] [nM] | Vd [3] [L/kg] | bioavailability (in vivo) [%]
Oc1ccc2c(c1)CCN(c1ccccc1)C2c1ccc(OCCN2CCCCC2)cc1 (stereo unspecified) | 51.9 | 31 | 13.8 | –
CN1CCC(c2ccc(C3c4ccc(O)cc4CCN3c3ccc(F)cc3)cc2)CC1 (stereo unspecified) | 52.4 | 26.5 | 15.8 | 64
Oc1ccc2c(c1)CC[C@H](c1ccccc1)[C@@H]2c1ccc(OCCN2CCCC2)cc1 [LASOFOXIFENE] | 55.7 | 15.5 | 14.7 | –
O=C(c1ccc(OCCN2CCCCC2)cc1)c1c(-c2ccc(O)cc2)sc2cc(O)ccc12 [RALOXIFENE] | 158 | 7.5 | 17.6 | –
